Laboratory results published in US20250058027A1, “Nanoyarns as Drug-Releasing Facilitator” (Amrita Vishwa Vidyapeetham, priority 2023, published 2025).
Where a name gives a salt, the structure may show the parent alone. Read-outs that look alike come from different tables or passages of the source.

Parameters: species or system Yorkshire-desi crossbred pigs
Details: pig, in vivo
Description: To assess the feasibility and safety of the developed device, in vivo implantation of nanostent was done in the porcine bile duct under fluoroscopic guidance via ERCP procedure. In this embodiment, in a total of 14 animals (Yorkshire-desi crossbred pigs), nanostents and control SEMS (SEMS without nanoyarns) were implanted and analyzed for two-time points (3 and 5 months). The fluoroscopic images of the control and nanostent implanted bile duct reveal the proper deployment of the stents in the bile duct. This points to the feasibility of implantation of the nanoyarn-integrated SEMS in vivo.
Endoscopic follow-up was performed in the animals at regular intervals. Blood and bile were collected for analysis of the drug content at intermittent time periods. These were then tested for the presence of GEM and its metabolite by HPLC. GEM and its metabolite DFDU could not be detected in blood up to the limit of its detection i.e., 300 ng. […] The drug content in bile was also undetectable, owing to the drug release happening in a continuously flowing bile fluid. However, the presence of remnant drug could be measured in the nanoyarns taken from explanted stents at 3 and 5 months, to be ˜1000 μg and 50 μg respectively. This confirms that the nanoyarn integrated with the stent can provide a localized drug release over prolonged time periods.

| drug/metabolite in blood [ng] | drug/metabolite in blood (Yorkshire-desi crossbred) [ng] | drug content in bile | Structure (SMILES) |
| --- | --- | --- | --- |
| < 300 |  |  | O=c1ccn(C2OC(CO)C(O)C2(F)F)c(=O)[nH]1 (stereo not drawn) [DFDU] |
|  | < 300 | undetectable | Nc1ccn([C@@H]2O[C@H](CO)[C@@H](O)C2(F)F)c(=O)n1 [GEM, Gemcitabine hydrochloride] |
